Experimental data reported in US20040209959A1, “Congeners of acetaminophen and related compounds as substrates for fatty acid conjugation and their use in treatment of pain, fever and inflammation” (priority 2001, published 2004).

Columns and labels:
[1] = target: T1, vanilloid receptors on vasodilator sensory nerves (Rattus norvegicus, UniProt O35433); assay: Vasodilator effect in isolated rat mesenteric artery segments contracted with phenylephrine; conditions: for activation of vanilloid receptors on perivascular sensory nerves: FIG. 7; for inhibition of the effect of capsaicin (antagonist action on vanilloid receptors): 1 mM acetaminophen or 100 μM p-aminophenol for 30 min; for vasorelaxation per se (agonist action on vanilloid receptors): p-aminophenol in the presence of ascorbic acid; for relaxation of arterial segments contracted with phenylephrine: FIG. 7c; for effect on the vasodilator action of AM404: capsazepine 3 μM, ruthenium red 1 μM
T1 construct: from tissue; host or cells: mesenteric arteries from female Wistar-Hannover rats
T1 sequence (O35433 whole entry): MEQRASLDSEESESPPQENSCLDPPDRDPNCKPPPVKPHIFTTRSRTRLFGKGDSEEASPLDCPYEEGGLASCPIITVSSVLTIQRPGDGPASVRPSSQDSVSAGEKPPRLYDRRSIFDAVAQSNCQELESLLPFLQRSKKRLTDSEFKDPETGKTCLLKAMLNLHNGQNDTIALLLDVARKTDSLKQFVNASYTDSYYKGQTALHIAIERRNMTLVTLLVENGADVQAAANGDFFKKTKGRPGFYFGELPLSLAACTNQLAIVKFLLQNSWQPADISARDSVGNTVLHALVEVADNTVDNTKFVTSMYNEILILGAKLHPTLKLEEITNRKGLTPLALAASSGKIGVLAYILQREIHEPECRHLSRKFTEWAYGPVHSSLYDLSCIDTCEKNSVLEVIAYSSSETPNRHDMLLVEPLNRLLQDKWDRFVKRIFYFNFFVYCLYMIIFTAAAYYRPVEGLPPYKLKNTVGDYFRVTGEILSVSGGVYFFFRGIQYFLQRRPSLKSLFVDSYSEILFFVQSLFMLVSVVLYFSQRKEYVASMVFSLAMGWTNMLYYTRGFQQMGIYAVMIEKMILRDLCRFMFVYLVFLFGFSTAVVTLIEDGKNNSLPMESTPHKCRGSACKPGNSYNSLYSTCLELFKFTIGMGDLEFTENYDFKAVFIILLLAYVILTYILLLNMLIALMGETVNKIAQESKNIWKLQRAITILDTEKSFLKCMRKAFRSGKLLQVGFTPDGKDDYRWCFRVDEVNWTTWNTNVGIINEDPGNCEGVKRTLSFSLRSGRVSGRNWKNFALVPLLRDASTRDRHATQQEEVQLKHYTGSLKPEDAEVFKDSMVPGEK
Description: Recording of tension. Experiments were performed on mesenteric arteries from female Wistar-Hannover rats (250 g) as described (48). Briefly, the arteries were cut into ring segments and mounted in tissue baths, containing aerated physiological salt solution (5% CO2 and 95% O2; 37° C.; pH 7.4). […] We studied relaxant responses in preparations contracted with phenylephrine. When stable contractions were obtained, substances were added cumulatively to determine concentration-response relationships.
Calculations and statistics. Data are presented as means ±S.E.M. (vertical lines in figures), and n indicates the number of animals unless otherwise stated. GraphPad Prism 3.0 software was used for curve fitting (non-linear regressions) and calculations of pEC50 values. Mann-Whitney U-test or Student's t-test on log transformed values was used for statistical analysis. Statistical significance was accepted when P<0.05.

COX-1 = target: T2, COX-1 (Ovis aries, UniProt P05979); conditions: isolated enzyme preparation; 10 μM arachidonic acid
T2 sequence (P05979 25-600): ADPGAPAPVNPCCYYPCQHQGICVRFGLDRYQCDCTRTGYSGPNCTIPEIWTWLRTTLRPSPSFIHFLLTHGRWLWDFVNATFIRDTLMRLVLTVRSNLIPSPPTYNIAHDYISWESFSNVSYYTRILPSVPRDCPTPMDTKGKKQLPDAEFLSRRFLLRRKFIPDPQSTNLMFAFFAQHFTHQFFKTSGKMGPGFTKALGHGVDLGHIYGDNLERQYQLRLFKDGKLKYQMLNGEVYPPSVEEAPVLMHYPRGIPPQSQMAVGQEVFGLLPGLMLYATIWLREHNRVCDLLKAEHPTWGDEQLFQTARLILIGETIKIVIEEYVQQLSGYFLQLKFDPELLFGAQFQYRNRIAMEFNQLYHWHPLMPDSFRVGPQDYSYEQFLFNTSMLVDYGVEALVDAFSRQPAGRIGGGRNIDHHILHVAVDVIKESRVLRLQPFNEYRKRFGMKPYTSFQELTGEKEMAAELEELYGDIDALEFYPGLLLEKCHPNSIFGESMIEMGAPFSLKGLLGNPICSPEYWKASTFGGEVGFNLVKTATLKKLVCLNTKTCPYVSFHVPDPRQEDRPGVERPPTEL
Description: (§1) COX activity was measured as prostaglandin formation in the presence of 10 μM arachidonic acid.
(§2) COX-1 and COX-2 assays. COX-1 and COX-2 activity was determined in the presence of 10 μM arachidonic acid using a COX (ovine) inhibitor screening assay (Cayman). Drugs were incubated with the enzyme preparation 8 min before application of arachidonic acid. Prostaglandin formation was used as a measure of COX activity and quantified via enzyme immunoassay (EIA).

COX-2 = target: T3, COX-2 (Ovis aries, UniProt P79208); conditions: isolated enzyme preparation; 10 μM arachidonic acid
T3 sequence (P79208 17-603): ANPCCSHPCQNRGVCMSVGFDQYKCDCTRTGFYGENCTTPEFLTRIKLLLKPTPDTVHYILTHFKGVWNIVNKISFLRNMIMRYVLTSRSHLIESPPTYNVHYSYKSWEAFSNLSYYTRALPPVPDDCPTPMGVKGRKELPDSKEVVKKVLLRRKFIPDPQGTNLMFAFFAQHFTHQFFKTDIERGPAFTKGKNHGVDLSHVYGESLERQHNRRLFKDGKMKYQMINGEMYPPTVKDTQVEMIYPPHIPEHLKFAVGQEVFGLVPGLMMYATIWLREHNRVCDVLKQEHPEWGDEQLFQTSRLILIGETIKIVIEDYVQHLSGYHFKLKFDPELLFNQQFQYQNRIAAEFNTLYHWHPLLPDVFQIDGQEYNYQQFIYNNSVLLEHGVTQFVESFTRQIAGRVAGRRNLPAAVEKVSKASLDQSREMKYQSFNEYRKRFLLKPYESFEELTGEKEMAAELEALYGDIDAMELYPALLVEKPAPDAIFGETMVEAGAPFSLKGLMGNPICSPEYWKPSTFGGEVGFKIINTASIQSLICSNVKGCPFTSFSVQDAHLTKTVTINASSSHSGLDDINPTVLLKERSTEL
Description: as §1, §2

[2] = Description: In vivo experiments. Acetaminophen ([…]) or vehicle (saline) at a volume of 2-3 ml was given to female Wistar-Hannover rats (200-300 g) by an intraperitoneal injection. Some rats were pretreated with PMSF (10 mg kg^−1) or vehicle (saline:PEG 6000; 1:10 w/w) given subcutaneously (2-3 ml) 20 min before administration of acetaminophen. Approximately 20 min after injection of acetaminophen, the animals were killed to collect brain, liver, spinal cord and arterial blood. […] PMSF (0.1 mM) and ascorbic acid (0.3 mM) were also present in the Tris buffer and added to the blood samples to prevent degradation of fatty acid amides and p-aminophenol, respectively.
Quantitative analyses. The extraction residues were reconstituted in 100 μl methanol except for p-aminophenol, for which 100 μl 0.5% acetic acid was used. The quantitative analyses were performed using a Perkin Elmer 200 liquid chromatography system with autosampler (Applied Biosystems), coupled to an API 3000 tandem mass spectrometer (Applied Biosystems/MDS-SCIEX). All mobile phases were water-methanol gradients, containing 0.5% acetic acid, and the flow rate was 200 μl min^−1 except for arachidonic acid where it was 400 μl min^−1.
AM404, arachidonoyldopamine, arachidonoylserotonin and anandamide.
p-Aminophenol. Sample aliquots of 2 μl were injected on a Genesis phenyl column (150×2.1 mm; Jones). The mobile flow was initially 97% water for 2 min. […] The electrospray ion source was set at 450° C. and used in the positive ion mode. The ion spray voltage and declustering potential were set to 4500 volts and 55 volts, respectively. M/z 109.9/64.6 with a collision energy of 31 volts was used for the quantitative determinations.

Remark: listed apart in the source
anandamide hydrolysis = assay: Inhibition of [2H8]-anandamide hydrolysis in rat brain homogenates; type: biochemical; conditions: 1 hour pre-incubation, [2H8]-anandamide 10 μM
Description: (§3) Tissue homogenate experiments. The brain, liver, spinal cord and dorsal root ganglia from female Wistar-Hannover rats (250 g) were homogenised in a Tris buffer (10 mM, pH 7.6), containing EDTA (1 mM), to give 90-330 mg tissue ml^−1. We carried out experiments in aliquots of 200 μl homogenate at 37° C. as further explained in the text. The reactions were stopped by adding 1 ml ice-cold acetone containing 1 μM [^2H8]-anandamide. The samples were kept on ice until the acetone phase was evaporated in vacuo.
Sample aliquots of 5 μl were injected on a Genesis C18 column (50×2.1 mm; Jones). The HPLC was operated isocratically at 20% water and 80% methanol. The electrospray ion source was operating in the negative ion mode at 370° C., the ion spray voltage was −3000 volts and the declustering potential was −120 volts. M/z 310.8/267.0 with a collision energy of −22 volts was used for the quantitative determinations.

[3] = test system: AM404 production in brain homogenates; assay: Inhibition of AM404 formation in rat brain homogenates; type: biochemical; conditions: 1 hour pre-incubation, p-aminophenol plus arachidonic acid each 100 μM
Description: as §3

[4] = female, Wistar-Hannover, rat, pH 7.6
Description: as §3
Sample aliquots of 5 μl were injected on a Genesis C8 column (20×2.1 mm; Jones). Initially, the mobile flow was 25% water for 5.5 min. […]
p-Aminophenol. […] M/z 109.9/64.6 with a collision energy of 31 volts was used for the quantitative determinations. […]

[5] = PMSF 10 mg kg^−1 s.c. 20 min before acetaminophen

SMILES: CCCCC/C=C\C/C=C\C/C=C\C/C=C\CCCC(=O)OCC(O)CO (stereo not drawn) [1-arachidonoylglycerol]
- activation of vanilloid receptors on perivascular sensory nerves [1]: activators

SMILES: CCCCC/C=C\C/C=C\C/C=C\C/C=C\CCCC(=O)OC(CO)CO [2-arachidonoylglycerol]
- activation of vanilloid receptors on perivascular sensory nerves [1]: activators

SMILES: CCCCCC=CCC=CCC=CCC=CCCCC(=O)Nc1ccc(O)cc1 [AM404, N-(4-hydroxyphenyl)-5,8,11,14-eicosatetraenamide]
- EC50 [1]: 15.8 nM
- relaxation of arteries pre-treated with capsaicin ([1]; capsaicin 1 μM for 30 min): unable to relax
- effect on COX-1 activity (COX-1): concentration-dependently inhibited
- effect on COX-2 activity (COX-2): concentration-dependently inhibited

SMILES: O=S(=O)(F)Cc1ccccc1 [PMSF, phenyl-methyl-sulphonylfluoride]
- effect on formation of AM404 in brain after acetaminophen [2, 5]: abolished
- reduction of p-aminophenol content in brain after acetaminophen [2, 5]: 48%
- effect on formation of arachidonoyldopamine and arachidonoylserotonin (PMSF 100 μM added 1 hour before): almost abolished
- pEC50 for inhibition of the hydrolysis of anandamide (anandamide hydrolysis): 5.28±0.07
- pEC50 for inhibition of the formation of AM404 [3]: 5.41±0.03

SMILES: CC(=O)Nc1ccc(O)cc1 [acetaminophen]
- AM404 in brain, representative chromatogram of one animal ([2]; female, Wistar-Hannover, rat, in vivo, 20 min): 23.4 pmol/g
- inhibition of the effect of capsaicin (antagonist action on vanilloid receptors) [1]: nor inhibited the effect of capsaicin
- vasorelaxation per se (agonist action on vanilloid receptors) [1]: neither induced vasorelaxation per se
- AM404 formation in brain homogenates ([4]; 100 μM): did not result in any detectable levels of AM404
- AM404 in brain homogenates ([4]; 1 mM): 14 ± 2.6 pmol/g
- effect on COX-1 activity (COX-1): No effect
- effect on COX-2 activity (COX-2): No effect

SMILES: CCCCC/C=C\C/C=C\C/C=C\C/C=C\CCCC(=O)NCCc1ccc(O)c(OC)c1 [arachidonoyl-3-methoxytyramine]
- activation of vanilloid receptors on perivascular sensory nerves [1]: activators
- relaxation of arterial segments contracted with phenylephrine [1]: concentration-dependent relaxation

SMILES: CCCCC/C=C\C/C=C\C/C=C\C/C=C\CCCC(=O)NCCc1ccc(O)cc1 [arachidonoyltyramine]
- activation of vanilloid receptors on perivascular sensory nerves [1]: activators
- relaxation of arterial segments contracted with phenylephrine [1]: concentration-dependent relaxation

SMILES: Oc1cc2c(cc1O)CN(C(=S)NCCc1ccc(Cl)cc1)CCC2 [capsazepine]
- effect on the vasodilator action of AM404 [1]: inhibited

SMILES: NCCc1ccc(O)c(O)c1 [dopamine]
- production of arachidonoyldopamine (brain homogenates, dopamine 100 μM plus arachidonic acid 100 μM, 1 hour): substantial amounts

SMILES: Nc1ccc(O)cc1 [p-aminophenol]
- inhibition of the effect of capsaicin (antagonist action on vanilloid receptors) [1]: nor inhibited the effect of capsaicin
- vasorelaxation per se (agonist action on vanilloid receptors) [1]: neither induced vasorelaxation per se
- effect on COX-1 activity (COX-1): No effect
- effect on COX-2 activity (COX-2): No effect

SMILES: N.N.N.N.N.N.N.N.N.N.N.N.N.N.[Cl-].[Cl-].[Cl-].[Cl-].[Cl-].[Cl-].[O-2].[O-2].[Ru+3].[Ru+3].[Ru+4] [ruthenium red]
- effect on the vasodilator action of AM404 [1]: inhibited

SMILES: NCCc1c[nH]c2ccc(O)cc12 [serotonin]
- production of arachidonoylserotonin (brain homogenates, serotonin 100 μM plus arachidonic acid 100 μM, 1 hour): substantial amounts
